Test results as given in ChEMBL document CHEMBL1201862, “PubChem BioAssay data set” (2004).
Activity calls are given as the source filed them.

Experiments:
[1] = tested on: HeLa; assay: ATP-based viability loss in HeLa cells – cell-based, CellTiter-Glo luminescence, cherry-pick samples, cytotoxicity control for MITF activator project, dose response (AID 540259); assay type: functional; settings: Homo sapiens
[2] = tested on: Escherichia coli; assay: microbe, parasite or virus in culture
[3] = M. tuberculosis H37Rv growth inhibitors, H37Rv strain (AID 1626); assay type: functional
[4] = target: T1, CAAX prenyl protease 2 (Homo sapiens, UniProt Q9Y256); assay: inhibition of Ras-converting CAAX protease Rce1 – biochemical, yeast membranes, quenched-peptide fluorescence, cherry-pick, dose response (AID 588849)
T1 sequence (Q9Y256 whole entry): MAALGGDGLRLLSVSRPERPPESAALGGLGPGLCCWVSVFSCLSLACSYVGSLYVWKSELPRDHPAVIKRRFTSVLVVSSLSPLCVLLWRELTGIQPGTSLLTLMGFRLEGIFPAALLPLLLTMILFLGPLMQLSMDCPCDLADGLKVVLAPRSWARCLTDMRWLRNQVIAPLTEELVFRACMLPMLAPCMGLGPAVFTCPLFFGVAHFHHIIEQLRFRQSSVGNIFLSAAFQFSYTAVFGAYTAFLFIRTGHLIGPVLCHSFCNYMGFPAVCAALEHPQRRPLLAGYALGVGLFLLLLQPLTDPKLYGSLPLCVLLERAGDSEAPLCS

[5] = target: T2, CAAX prenyl protease 2 (Saccharomyces cerevisiae S288c, UniProt Q03530); assay type: biochemical
T2 sequence (Q03530 whole entry): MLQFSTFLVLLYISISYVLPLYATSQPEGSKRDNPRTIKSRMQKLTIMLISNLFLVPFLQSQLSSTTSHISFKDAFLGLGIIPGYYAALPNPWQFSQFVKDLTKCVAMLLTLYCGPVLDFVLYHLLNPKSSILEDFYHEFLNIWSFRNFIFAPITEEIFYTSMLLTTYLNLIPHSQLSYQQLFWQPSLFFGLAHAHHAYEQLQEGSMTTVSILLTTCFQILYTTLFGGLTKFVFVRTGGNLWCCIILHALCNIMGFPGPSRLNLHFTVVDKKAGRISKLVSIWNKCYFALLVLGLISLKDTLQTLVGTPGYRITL

[6] = target: Delta-type opioid receptor (Homo sapiens, UniProt P41143); assay: Counterscreen for agonists of heterodimerization of the mu 1 (OPRM1) and delta 1 (OPRD1) opioid receptors: Luminescence-based cell-based high throughput dose response assay to identify agonists of OPRD1 homodimerization. [Related pubchem assays (depositor defined):AID504326, AID504355, AID504692, AID504904, AID504905]; assay type: functional
Delta-type opioid receptor, sequence (P41143 whole entry): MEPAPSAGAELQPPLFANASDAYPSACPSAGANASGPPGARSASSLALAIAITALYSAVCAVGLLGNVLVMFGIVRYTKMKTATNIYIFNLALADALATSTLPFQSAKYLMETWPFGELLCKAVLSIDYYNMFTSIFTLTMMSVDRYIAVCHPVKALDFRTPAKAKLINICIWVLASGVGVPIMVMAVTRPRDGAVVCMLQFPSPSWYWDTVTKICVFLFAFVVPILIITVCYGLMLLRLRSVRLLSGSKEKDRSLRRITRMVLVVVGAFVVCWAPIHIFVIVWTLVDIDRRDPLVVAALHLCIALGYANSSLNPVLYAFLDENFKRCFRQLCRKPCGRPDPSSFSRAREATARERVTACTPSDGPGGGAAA

[7] = target: Mu-type opioid receptor (Homo sapiens, UniProt P35372); assay: Counterscreen for agonists of heterodimerization of the mu 1 (OPRM1) and delta 1 (OPRD1) opioid receptors: Luminescence-based cell-based high throughput dose response assay to identify agonists of OPRM1 homodimerization.; assay type: functional;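 also: U2OS cells expressing OPRM1 and beta-arrestin as split beta-galactosidase partners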
Mu-type opioid receptor, sequence (P35372 whole entry): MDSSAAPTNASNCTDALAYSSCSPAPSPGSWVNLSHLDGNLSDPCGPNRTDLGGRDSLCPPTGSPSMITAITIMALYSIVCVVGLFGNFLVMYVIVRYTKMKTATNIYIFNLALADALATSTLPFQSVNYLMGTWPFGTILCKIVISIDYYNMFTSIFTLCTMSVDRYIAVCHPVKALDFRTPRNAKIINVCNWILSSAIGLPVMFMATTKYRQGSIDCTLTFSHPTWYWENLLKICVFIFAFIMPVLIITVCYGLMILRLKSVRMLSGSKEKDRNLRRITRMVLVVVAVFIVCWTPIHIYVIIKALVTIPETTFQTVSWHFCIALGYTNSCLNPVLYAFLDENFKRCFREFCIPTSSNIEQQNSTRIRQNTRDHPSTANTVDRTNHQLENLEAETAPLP

[8] = target: 5-hydroxytryptamine receptor 5A (Homo sapiens, UniProt P47898); assay: Counterscreen for agonists of OPRM1-OPRD1 heterodimerization: luminescence-based cell-based high throughput dose response assay to identify agonists of 5-hydroxytryptamine (serotonin) 5A receptor (HTR5A). [Related pubchem assays (depositor defined):AID504326, AID504355, AID504692, AID504904, AID504905]; assay type: functional
5-hydroxytryptamine receptor 5A, sequence (P47898 whole entry): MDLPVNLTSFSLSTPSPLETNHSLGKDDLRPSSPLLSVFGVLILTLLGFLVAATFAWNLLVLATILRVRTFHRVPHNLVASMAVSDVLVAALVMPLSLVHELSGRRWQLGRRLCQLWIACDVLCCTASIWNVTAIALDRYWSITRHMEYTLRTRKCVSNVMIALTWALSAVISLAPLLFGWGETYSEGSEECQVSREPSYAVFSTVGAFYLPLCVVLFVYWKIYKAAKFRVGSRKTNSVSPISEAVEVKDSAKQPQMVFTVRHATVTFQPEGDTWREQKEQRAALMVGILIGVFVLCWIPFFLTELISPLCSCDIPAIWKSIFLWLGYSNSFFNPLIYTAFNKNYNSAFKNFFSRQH

[9] = target: T3, Tyrosine-protein phosphatase non-receptor type 22 (Homo sapiens, UniProt Q9Y2R2); assay: SAR LYP1 Fluorescent Assay using pCAP substrate for In Vitro dose response studies - Set 2. [Related pubchem assays (depositor defined):AID1779, AID1784, AID2135, AID449727]; assay type: functional
T3 sequence (Q9Y2R2 whole entry): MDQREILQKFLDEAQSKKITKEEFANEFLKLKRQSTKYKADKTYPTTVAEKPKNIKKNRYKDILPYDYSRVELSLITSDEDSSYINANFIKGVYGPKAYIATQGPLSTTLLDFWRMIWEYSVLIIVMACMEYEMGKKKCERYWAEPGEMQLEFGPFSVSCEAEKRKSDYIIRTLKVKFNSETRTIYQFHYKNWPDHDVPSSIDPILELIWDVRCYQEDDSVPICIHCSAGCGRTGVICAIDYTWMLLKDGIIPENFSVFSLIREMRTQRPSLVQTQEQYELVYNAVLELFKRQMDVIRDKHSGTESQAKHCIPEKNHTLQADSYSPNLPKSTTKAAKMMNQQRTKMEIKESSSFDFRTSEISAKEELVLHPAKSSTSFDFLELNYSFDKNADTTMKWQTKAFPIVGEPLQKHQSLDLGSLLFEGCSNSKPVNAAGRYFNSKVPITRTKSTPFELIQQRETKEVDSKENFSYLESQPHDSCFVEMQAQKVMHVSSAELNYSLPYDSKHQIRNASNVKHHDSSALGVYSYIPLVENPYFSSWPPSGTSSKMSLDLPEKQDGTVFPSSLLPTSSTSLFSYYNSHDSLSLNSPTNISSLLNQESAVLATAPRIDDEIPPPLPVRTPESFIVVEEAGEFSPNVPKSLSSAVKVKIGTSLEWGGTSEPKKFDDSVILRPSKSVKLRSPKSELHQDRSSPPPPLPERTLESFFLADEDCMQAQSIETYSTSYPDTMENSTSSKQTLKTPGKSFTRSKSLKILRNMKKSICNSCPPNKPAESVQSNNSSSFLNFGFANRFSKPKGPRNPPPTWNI

[10] = target: T4, Tyrosine-protein phosphatase non-receptor type 12 (Homo sapiens, UniProt Q05209); assay: SAR Selectivity Analysis of small molecule inhibitors of PEST using pCAP in a fluorescence assay. [Related pubchem assays (depositor defined):AID1779, AID1784, AID2135]; assay type: functional
T4 sequence (Q05209 whole entry): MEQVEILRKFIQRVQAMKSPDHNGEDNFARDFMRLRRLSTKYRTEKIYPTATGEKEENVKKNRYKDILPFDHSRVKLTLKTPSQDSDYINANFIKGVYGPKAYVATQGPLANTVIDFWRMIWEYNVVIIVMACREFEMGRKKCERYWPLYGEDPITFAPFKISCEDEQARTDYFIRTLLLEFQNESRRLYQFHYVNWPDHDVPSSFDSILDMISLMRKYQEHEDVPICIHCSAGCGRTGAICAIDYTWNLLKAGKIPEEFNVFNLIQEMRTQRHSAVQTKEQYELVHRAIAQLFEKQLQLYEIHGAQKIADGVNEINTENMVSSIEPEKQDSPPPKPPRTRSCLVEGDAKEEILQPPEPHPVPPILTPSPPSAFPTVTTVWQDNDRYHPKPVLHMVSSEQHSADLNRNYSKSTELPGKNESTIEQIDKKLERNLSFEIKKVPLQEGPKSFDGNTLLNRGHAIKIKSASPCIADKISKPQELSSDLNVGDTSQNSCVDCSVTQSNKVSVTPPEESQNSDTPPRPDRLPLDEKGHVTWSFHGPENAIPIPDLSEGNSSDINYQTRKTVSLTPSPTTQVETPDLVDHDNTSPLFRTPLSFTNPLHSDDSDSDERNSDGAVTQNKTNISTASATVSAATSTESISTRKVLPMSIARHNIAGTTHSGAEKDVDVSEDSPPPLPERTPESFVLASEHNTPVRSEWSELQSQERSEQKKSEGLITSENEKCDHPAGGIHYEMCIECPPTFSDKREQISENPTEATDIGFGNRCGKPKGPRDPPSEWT

[11] = target: T3, Tyrosine-protein phosphatase non-receptor type 22; assay: SAR LYP1 Fluorescent Assay using OMFP substrate for In Vitro dose response studies - Set 3. [Related pubchem assays (depositor defined):AID1779, AID1784, AID2140, AID2686]; assay type: functional
[12] = target: T5, Tyrosine-protein phosphatase non-receptor type 7 (Homo sapiens, UniProt P35236); assay: inhibition of hematopoietic tyrosine phosphatase HePTP – biochemical, set 2, SAR follow-up (AID 449736); assay type: functional
T5 sequence (P35236 whole entry): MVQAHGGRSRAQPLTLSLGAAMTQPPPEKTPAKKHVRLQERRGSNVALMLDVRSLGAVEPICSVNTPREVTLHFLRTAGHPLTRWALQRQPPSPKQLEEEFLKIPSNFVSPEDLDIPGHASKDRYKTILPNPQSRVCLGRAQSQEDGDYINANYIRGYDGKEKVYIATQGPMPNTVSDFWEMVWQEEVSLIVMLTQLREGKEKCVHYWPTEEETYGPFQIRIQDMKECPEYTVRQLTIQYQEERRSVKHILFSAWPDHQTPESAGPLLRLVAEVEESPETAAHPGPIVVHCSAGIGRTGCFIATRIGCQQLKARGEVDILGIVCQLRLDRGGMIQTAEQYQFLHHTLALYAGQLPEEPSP

[13] = target: T3, Tyrosine-protein phosphatase non-receptor type 22; assay: inhibition of lymphoid tyrosine phosphatase LYP – biochemical, pCAP fluorogenic substrate, fluorescence, set 3, SAR follow-up (AID 449727); assay type: functional
[14] = target: T3, Tyrosine-protein phosphatase non-receptor type 22; assay: SAR LYP1 Fluorescent Assay using OMFP substrate for In Vitro dose response studies - Set 2. [Related pubchem assays (depositor defined):AID1779, AID1784, AID2140, AID449726, AID488869]; assay type: functional
[15] = target: T6, Short transient receptor potential channel 4 (Mus musculus, UniProt Q9QUQ5); assay: calcium entry via TRPC4 opening agents – cell-based, HEK293 TRPC4/mu-opioid, Fluo-4 calcium, dose response (AID 434937); assay type: functional
T6 sequence (Q9QUQ5 whole entry): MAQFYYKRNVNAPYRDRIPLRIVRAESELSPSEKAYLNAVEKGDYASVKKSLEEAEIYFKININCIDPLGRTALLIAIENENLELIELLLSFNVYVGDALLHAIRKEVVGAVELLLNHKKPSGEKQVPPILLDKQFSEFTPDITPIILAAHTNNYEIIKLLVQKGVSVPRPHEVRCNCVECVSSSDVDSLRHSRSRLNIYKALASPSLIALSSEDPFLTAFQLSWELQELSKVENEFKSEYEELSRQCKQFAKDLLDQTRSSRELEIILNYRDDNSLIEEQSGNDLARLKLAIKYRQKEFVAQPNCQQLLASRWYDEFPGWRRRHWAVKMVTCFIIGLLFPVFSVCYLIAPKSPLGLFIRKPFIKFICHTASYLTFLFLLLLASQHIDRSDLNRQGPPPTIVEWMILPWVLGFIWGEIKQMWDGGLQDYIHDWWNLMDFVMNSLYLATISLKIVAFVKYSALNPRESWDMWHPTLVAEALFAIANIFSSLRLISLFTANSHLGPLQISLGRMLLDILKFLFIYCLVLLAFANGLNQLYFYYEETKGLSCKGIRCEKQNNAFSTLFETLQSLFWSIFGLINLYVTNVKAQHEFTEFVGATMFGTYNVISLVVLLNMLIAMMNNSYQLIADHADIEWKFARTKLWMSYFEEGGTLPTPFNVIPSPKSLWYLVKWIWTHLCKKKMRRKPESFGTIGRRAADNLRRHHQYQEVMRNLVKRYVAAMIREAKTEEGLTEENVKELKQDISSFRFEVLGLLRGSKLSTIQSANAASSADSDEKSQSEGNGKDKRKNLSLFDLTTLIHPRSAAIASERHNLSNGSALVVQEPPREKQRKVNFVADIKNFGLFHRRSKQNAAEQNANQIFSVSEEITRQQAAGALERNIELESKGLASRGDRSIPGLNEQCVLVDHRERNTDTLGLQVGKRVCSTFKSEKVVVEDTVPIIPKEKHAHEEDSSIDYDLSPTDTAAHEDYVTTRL

[16] = target: Voltage-gated inwardly rectifying potassium channel KCNH2 (Homo sapiens, UniProt Q12809); settings: Potency;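 also: confirmatory quantitative high-throughput screen measuring inhibition of hERG channel activity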
Voltage-gated inwardly rectifying potassium channel KCNH2, sequence (Q12809 whole entry): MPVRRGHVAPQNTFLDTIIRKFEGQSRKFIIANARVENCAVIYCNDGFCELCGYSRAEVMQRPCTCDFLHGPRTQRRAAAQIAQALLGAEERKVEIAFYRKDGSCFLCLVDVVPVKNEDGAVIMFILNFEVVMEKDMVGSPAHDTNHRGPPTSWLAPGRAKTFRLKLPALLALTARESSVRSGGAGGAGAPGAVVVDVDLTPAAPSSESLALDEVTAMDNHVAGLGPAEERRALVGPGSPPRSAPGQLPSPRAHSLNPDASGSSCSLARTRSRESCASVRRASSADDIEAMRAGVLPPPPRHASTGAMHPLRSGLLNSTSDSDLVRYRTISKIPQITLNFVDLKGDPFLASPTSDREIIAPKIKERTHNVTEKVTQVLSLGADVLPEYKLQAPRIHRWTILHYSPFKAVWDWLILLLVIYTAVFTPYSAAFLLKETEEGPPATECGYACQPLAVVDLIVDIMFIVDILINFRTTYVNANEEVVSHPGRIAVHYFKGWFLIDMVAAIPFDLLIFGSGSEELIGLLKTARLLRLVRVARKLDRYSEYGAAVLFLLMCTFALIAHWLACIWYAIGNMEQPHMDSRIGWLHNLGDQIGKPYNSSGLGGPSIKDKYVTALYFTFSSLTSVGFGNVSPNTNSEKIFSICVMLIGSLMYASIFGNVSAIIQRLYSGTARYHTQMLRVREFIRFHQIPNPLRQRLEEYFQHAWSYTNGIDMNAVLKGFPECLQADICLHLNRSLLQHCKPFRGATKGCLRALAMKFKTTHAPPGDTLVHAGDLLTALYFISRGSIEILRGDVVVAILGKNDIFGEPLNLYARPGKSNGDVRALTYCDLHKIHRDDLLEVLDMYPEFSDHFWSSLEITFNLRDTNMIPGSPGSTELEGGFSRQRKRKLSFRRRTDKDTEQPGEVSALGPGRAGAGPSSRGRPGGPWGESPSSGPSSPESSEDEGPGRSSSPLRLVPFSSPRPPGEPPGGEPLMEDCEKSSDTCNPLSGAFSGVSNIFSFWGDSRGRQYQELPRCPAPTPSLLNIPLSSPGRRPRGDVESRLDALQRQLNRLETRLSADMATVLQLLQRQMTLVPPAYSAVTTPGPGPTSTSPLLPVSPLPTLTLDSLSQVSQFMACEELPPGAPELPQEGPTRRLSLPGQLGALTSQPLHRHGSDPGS

Cc1nnc2sc(-c3ccc(N(C)C)cc3)nn2c1=O
AC50 [1]: 55.2 µM (active)

O=C(CSc1nccn1Cc1ccccc1)NC1CCCC1
AC50 [2]: 25.5 µM (active)

c1ccc(-n2ncc3c(NCc4cccs4)ncnc32)cc1
AC50 [1]: 55.5 µM (active)

Fc1cccc(-c2cc3nc(-c4ccccc4)cc(N4CCC5(CC4)OCCO5)n3n2)c1
IC50 [3]: > 100 µM (active)
AC50 [4]: 1.35 µM (active)

COc1ccc2cc(CCNC(=O)c3cccs3)c(O)nc2c1
AC50 [1]: 51 µM (active)

CC(=O)OC1CCC2(C)C(COc3ccc4ccc(=O)oc4c3)C(C)(O)CCC2C1(C)C (stereo not drawn)
AC50 [5]: 18.1 µM (active)
AC50 [4]: 87.2 µM (active)

Cc1cccnc1NC(=O)c1cccc(S(=O)(=O)N2CCCc3ccccc32)c1
AC50 [2]: 23.6 µM (active)

C#CC(C)(CC)NC(=O)c1cc2cccc(CC=C)c2oc1=O (stereo not drawn)
AC50 [2]: 23.8 µM (active)

O=C(CC1(O)C(=O)N(C/C=C/c2ccccc2)c2ccccc21)c1ccccn1 (stereo not drawn)
AC50 [5]: 26.3 µM (active)
AC50 [4]: 59.1 µM (active)

CCN1CCN(S(=O)(=O)c2ccc(Cl)c(C(=O)N(CCc3ccccc3)Cc3ccccc3)c2)CC1
EC50 [6]: > 92.5 µM (inactive)
EC50 [7]: > 92.5 µM (inactive)
EC50 [8]: > 92.5 µM (inactive)

COc1cc(/C=C2/SC(=S)N(c3cccc(C(=O)O)c3)C2=O)ccc1OCc1ccc(Cl)cc1
IC50 [9]: 3.68 µM (active)
IC50 [10]: 0.953 µM (active)
IC50 [11]: 3.06 µM (active)
IC50 [12]: 0.394 µM (active)
IC50 [13]: 3.49 µM (active)
IC50 [14]: 4.04 µM (active)

COc1cc(/C=C2/SC(=S)N(c3cccc(C(=O)O)c3)C2=O)cc(Cl)c1OCc1cccc(C(=O)O)c1
IC50 [9]: 12.2 µM (active)
IC50 [10]: 2.81 µM (active)
IC50 [11]: 62.8 µM (active)
IC50 [12]: 3.81 µM (active)
IC50 [13]: 20.4 µM (active)
IC50 [14]: 14.6 µM (active)

COc1ccc(C(CNC(=O)c2ccc3c(c2)CCC3)N(C)C)cc1 (stereo not drawn)
EC50 [15]: 0.0053 µM (active)
EC50 [6]: 7.36 µM (active)
EC50 [7]: 0.503 µM (active)
EC50 [8]: > 92.5 µM (inactive)

CCOc1ccc(/C=N/NC(=O)c2ccc(-c3csc(Nc4ccc(C)cc4)n3)cc2)cc1OCC
IC50 [9]: > 100 µM (inactive)
IC50 [10]: > 100 µM (inactive)
IC50 [11]: > 100 µM (inactive)
IC50 [12]: 60.8 µM (active)
IC50 [13]: > 100 µM (inactive)
IC50 [14]: 95.3 µM (active)

Nc1ccc(Cc2ccc(N)c(Cl)c2)cc1Cl
AC50 [16]: 79.4 µM (inconclusive)
